From ChEMBL document CHEMBL1146625, “The kinetics of binding to p38MAP kinase by analogues of BIRB 796” (Bioorg Med Chem Lett, 2003)
pKd: −log10 of the molar value.

target: T1, Mitogen-activated protein kinase 14 (Homo sapiens, UniProt Q16539)
T1 sequence (Q16539 whole entry): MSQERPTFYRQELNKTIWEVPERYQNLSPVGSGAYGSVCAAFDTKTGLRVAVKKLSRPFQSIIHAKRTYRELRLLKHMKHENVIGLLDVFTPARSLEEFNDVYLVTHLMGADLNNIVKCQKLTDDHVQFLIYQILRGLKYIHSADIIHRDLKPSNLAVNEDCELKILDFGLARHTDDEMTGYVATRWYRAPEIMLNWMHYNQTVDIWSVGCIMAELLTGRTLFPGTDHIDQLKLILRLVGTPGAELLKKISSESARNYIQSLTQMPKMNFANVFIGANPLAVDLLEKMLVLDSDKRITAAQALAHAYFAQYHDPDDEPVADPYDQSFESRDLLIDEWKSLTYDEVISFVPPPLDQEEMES
Description: Rate of association to Mitogen-activated protein kinase p38 alpha

Compared with `Cc1ccc(-n2nc(C(C)(C)C)cc2NC(=O)Nc2ccc(OCCN3CCOCC3)c3ccccc23)cc1C(=O)O`, `Cc1ccc(-n2nc(C(C)(C)C)cc2NC(=O)Nc2ccc(OCCN3CCOCC3)cc2)cc1` is 1.9-fold lower in k on: 25200 M⁻¹ s⁻¹ for the first, 13000 M⁻¹ s⁻¹ for the second.

target: T1, Mitogen-activated protein kinase 14; experiment: Binding affinity for Mitogen-activated protein kinase p38 alpha

Going from `Cc1ccc(-n2nc(C(C)(C)C)cc2NC(=O)Nc2cccc3ccccc23)cc1` to `COc1cc(NC(=O)Nc2cc(C(C)(C)C)nn2-c2ccc(C)cc2)c2ccccc2c1`, the pKd falls from 8.96 to 8.03 (0.93 log units).

Compared with `Cc1ccc(-n2nc(C(C)(C)CO)cc2NC(=O)Nc2ccc(OCCN3CCOCC3)c3ccccc23)cc1`, `Cc1ccc(-n2nc(C(C)(C)C)cc2NC(=O)Nc2ccc(OCCN3CCOCC3)c3ccccc23)cn1` is 1.16 log units higher in pKd: 7.80 for the first, 8.96 for the second.

Going from `Cc1ccc(-n2nc(C(C)(C)C)cc2NC(=O)Nc2ccc(CCCN3CCOCC3)c3ccccc23)cc1` to `COc1cc(NC(=O)Nc2cc(C(C)(C)C)nn2-c2ccc(C)cc2)c2ccccc2c1OCCN1CCOCC1`, the pKd falls from 8.92 to 7.85 (1.07 log units).

Compared with `CN(C)Cc1cccc(-n2nc(C(C)(C)C)cc2NC(=O)Nc2ccc(OCCN3CCOCC3)c3ccccc23)c1`, `Cc1ccc(-n2nc(C(C)(C)C)cc2NC(=O)Nc2ccc(OCCN3CCOCC3)c3ccccc23)cc1CN(C)C` is 0.52 log units higher in pKd: 7.80 for the first, 8.32 for the second. The second binds more tightly here.

Going from `Cc1ccc(-n2nc(C(C)(C)C)cc2NC(=O)Nc2ccc(OCCN3CCOCC3)c3ccccc23)cc1C(=O)O` to `CC(C)(C)c1cc(NC(=O)Nc2ccc(OCCN3CCOCC3)c3ccccc23)n(-c2ccccc2)n1`, the pKd rises from 8.60 to 10.01 (1.41 log units). The second binds more tightly here.

Going from `CC(C)c1cc(NC(=O)Nc2ccc(OCCN3CCOCC3)c3ccccc23)n(-c2ccccc2)n1` to `O=C(Nc1ccc(OCCN2CCOCC2)c2ccccc12)Nc1ccnn1-c1ccccc1`, the pKd falls from 8.23 to 5.70 (2.53 log units).

`Cc1ccc(-n2nc(C(C)(C)C)cc2NC(=O)Nc2ccccc2)cc1` and `Cn1nc(C(C)(C)C)cc1NC(=O)Nc1ccc(OCCN2CCOCC2)c2ccccc12` are within 0.2 log units of each other in pKd: 7.66 for the first, 7.64 for the second.

target: T1, Mitogen-activated protein kinase 14; remark: another data set of the same source
Description: Rate of dissociation from Mitogen-activated protein kinase p38 alpha

Compared with `Cc1ccc(-n2nc(C(C)(C)C)cc2NC(=O)Nc2ccc(OCCN3CCOCC3)c3ccccc23)cc1C(=O)O`, `Cc1ccc(-n2nc(C(C)(C)C)cc2NC(=O)Nc2ccc(OCCN3CCOCC3)cc2)cc1` is 63-fold higher in k off: 6.2e-05 s⁻¹ for the first, 0.0039 s⁻¹ for the second.
